How the values were obtained:
[1] = test system: Leishmania major; experiment: Antileishmanial activity against Leishmania major promastigotes after 72 hrs by Neubauer chamber based cell counting method; format: functional, organism-based
[2] = Cytotoxicity against […] 3T3 cells assessed as inhibition of cell viability at 50 uM after 48 hrs by MTT assay; format: cell-based; details: read-out: INH
[3] = Cytotoxicity against […] 3T3 cells after 48 hrs by MTT assay; format: cell-based

IC50 [1] [µM]	Compound	further results
38.4	CCN1CSC(=S)N(CC)C1	
137	CC(C)N1CN(CC(=O)O)CSC1=S	
36.6	CCCCN1CSC(=S)N(CC(=O)O)C1	
107	CCCN1CN(CC(=O)OCC)CSC1=S	
32.2	CC(c1ccccc1)N1CN(CCO)CSC1=S (stereo not given)	
69.6	CCCN1CSC(=S)N(CC(=O)O)C1	
21.4	CC(C)N1CSC(=S)N(C(C)c2ccccc2)C1 (stereo not given)	
24.6	CCCCN1CN(CC(=O)O)CSC1=S	
33.1	CCN1CN(CC(=O)O)CSC1=S	
46.2	CCN1CSC(=S)N(C(C)c2ccccc2)C1 (stereo not given)	
30.7	CC(c1ccccc1)N1CN(CC(=O)O)CSC1=S (stereo not given)	
21.4	CCCCN1CSC(=S)N(C(C)c2ccccc2)C1 (stereo not given)	
39.3	CCCN1CN(CC(=O)O)CSC1=S	cytotoxicity at 48 h, 50 µM [2]: 56.6%; IC50 ([3]; NIH3T3, 48 h, read-out: IC50): 38.1 µM
93.1	CCCN1CN(CC(=O)OCc2ccccc2)CSC1=S	
39.4	O=C(O)CN1CN(CCO)CSC1=S	
24.2	CCCN1CSC(=S)N(C(C)c2ccccc2)C1 (stereo not given)	
15.5	COc1ccc(CN2CN(CC(=O)O)CSC2=S)cc1OC	cytotoxicity at 48 h, 50 µM [2]: 86.8%; IC50 ([3]; NIH3T3, 48 h, read-out: IC50): 22.7 µM
36.5	CCCCN1CN(CC(=O)OCC)CSC1=S	
203	CCCN1CN(CC(=O)OC)CSC1=S	cytotoxicity at 48 h, 50 µM [2]: 36.9%; IC50 [3]: Not Active
45.8	CCN1CSC(=S)N(CC(=O)O)C1	
0.31	C[C@@H]1[C@H](O)[C@@H](C)/C=C/C=C/C=C/C=C/C=C/C=C/C=C/[C@H](O[C@@H]2O[C@H](C)[C@@H](O)[C@H](N)[C@@H]2O)C[C@@H]2O[C@](O)(C[C@@H](O)C[C@@H](O)[C@H](O)CC[C@@H](O)C[C@@H](O)CC(=O)O[C@H]1C)C[C@H](O)[C@H]2C(=O)O [AMPHOTERICIN B]	
	C[C@@H]1C[C@@H]([C@H](O)CC2CC(=O)NC(=O)C2)C(=O)[C@@H](C)C1 [CYCLOHEXIMIDE]	cytotoxicity at 48 h, 50 µM [2]: 66%; IC50 ([3]; NIH3T3, 48 h, read-out: IC50): 0.61 µM
15	N=C(N)c1ccc(OCCCCCOc2ccc(C(=N)N)cc2)cc1 [PENTAMIDINE]	

Source: ChEMBL document CHEMBL4265892, “New series of 3,5-disubstituted tetrahydro-2H-1,3,5-thiadiazine thione (THTT) derivatives: Synthesis and potent antileishmanial activity” (Bioorg Med Chem Lett, 2018)
